pIC50: −log10 of the molar value. Where two headings read alike, the source gives them in different places.
Columns and labels:
5-HT2B receptor = biological target: T1, 5-HT2B receptor (Homo sapiens, UniProt P41595); experiment: 5-HT2B binding affinity, human recombinant-CHO cells, 5-HT as control (Bonhaus); details: for pIC50: agonist 5-HT2B receptor
T1 construct: expressed in transfected cells; host or cells: CHO cells
Experimental: (§1) Each of those receptors were analyzed by methods known in the art. Initial assessment of binding at 100×10^−7 M (10 micro molar) was performed in duplicate.

melatonin ML-1 [1] = experiment: ML1 binding affinity, chicken brain; details: Table 2; relative potency compared to CCB
Experimental: as §1

melatonin ML-1 [2] = biological target: T2, melatonin ML-1; experiment: ML1 binding affinity, chicken brain; details: Table 1; chicken brain
T2 construct: chicken brain
Experimental: as §1

MT2 receptor = biological target: T3, MT2 receptor (Homo sapiens, UniProt P49286); details: at 100×10^−7 M
T3 sequence (P49286 1-362): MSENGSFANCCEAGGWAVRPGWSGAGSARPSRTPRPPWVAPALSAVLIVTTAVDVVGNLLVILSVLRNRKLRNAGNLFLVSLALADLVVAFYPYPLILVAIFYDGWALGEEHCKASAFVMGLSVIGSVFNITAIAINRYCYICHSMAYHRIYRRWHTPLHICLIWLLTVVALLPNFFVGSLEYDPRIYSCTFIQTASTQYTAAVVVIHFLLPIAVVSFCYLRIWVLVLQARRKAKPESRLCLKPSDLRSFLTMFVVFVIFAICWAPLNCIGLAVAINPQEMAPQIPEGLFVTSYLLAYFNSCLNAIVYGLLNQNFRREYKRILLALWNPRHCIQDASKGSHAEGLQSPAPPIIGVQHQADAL
Experimental: as §1

[3] = biological target: melatonin MT-1 sub-receptor (Homo sapiens, UniProt P48039); details: Table 7
Sequence of melatonin MT-1 sub-receptor (P48039 whole entry): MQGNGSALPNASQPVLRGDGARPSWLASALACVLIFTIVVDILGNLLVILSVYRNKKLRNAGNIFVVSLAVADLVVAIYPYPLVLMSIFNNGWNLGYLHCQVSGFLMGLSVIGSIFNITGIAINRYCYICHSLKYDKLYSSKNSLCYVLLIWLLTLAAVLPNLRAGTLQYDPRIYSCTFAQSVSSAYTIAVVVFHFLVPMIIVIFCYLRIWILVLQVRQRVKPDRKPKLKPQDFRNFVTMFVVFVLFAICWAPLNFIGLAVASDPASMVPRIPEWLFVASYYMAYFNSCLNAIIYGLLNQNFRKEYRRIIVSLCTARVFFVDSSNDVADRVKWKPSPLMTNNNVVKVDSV
Experimental: as §1

T1 sequence (P41595 whole entry): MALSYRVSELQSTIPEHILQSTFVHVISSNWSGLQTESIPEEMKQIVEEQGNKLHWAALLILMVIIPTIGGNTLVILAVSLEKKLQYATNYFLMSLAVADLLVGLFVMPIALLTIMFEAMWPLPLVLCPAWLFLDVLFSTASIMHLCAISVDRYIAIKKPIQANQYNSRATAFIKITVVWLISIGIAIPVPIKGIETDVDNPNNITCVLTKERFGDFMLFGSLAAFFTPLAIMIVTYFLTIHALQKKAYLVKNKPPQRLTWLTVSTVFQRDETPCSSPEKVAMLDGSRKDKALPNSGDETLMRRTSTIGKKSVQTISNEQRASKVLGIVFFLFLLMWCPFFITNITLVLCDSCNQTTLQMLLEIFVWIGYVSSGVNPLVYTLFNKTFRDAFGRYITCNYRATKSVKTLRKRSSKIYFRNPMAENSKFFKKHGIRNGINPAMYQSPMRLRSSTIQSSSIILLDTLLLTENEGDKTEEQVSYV

Structure (SMILES): CCOC(=O)C1=C(C)NC(C)=C(C(=O)OC)C1c1cccc(Cl)c1Cl (centres unmarked) [Felodipine]
- pIC50 (5-HT2B receptor; Table 1): 5.89

Structure (SMILES): COC(=O)C1=C(C)NC(C)=C(C(=O)OC(C)C)C1c1cccc2nonc12 (centres unmarked) [Isradipine]
- pIC50 (5-HT2B receptor; Table 1): < 5.00
- percentage of binding 5-HT2B (5-HT2B receptor; Table 1, at 100×10^−7 M): 3%
- (IC50: 5-HT2B)/(IC50: CCB) (5-HT2B receptor; Table 2, relative potency compared to CCB): 21,739
- (IC50: ML-1)/(IC50: CCB) (melatonin ML-1 [1]): 4,348
- pIC50 (melatonin ML-1 [2]): 5.70

Structure (SMILES): COc1ccc(CCN(C)CCC[C@](C#N)(c2ccc(OC)c(OC)c2)C(C)C)cc1OC [R-verapamil, (R)-verapamil]
- percentage of binding MT2 (MT2 receptor): 0%
- % Binding MT-1 ([3]; at 0.1 ×10^−7 M): 13%
- % Binding MT-1 ([3]; at 0.3 ×10^−7 M): 35%
- % Binding MT-1 ([3]; at 1.0 ×10^−7 M): 67%
- % Binding MT-1 ([3]; at 3.0 ×10^−7 M): 83%

Reference: patent publication US20090023814A1, “COMPOSITIONS AND METHODS HAVING MT1 RECEPTOR ACTIVITY” (AGI Therapeutics Research Ltd., priority 2007, published 2009)
